According to patent US9067898B1, “Isothiazole derivatives as GPR120 agonists for the treatment of type II diabetes” (Janssen Pharmaceutica NV, priority 2014, dated 2015):

Tests used:
Format in all cases: cell-based
[1] = target: T1, short form of the GPR120 receptor (GPR120S) (Homo sapiens, UniProt Q5NUL3); test: Human GPR120 DiscoveRx PathHunter Beta-Arrestin assay, Procedure β-arrestin B; conditions: PathHunter CHO-K1 GPR120S β-Arrestin cell line, 5000 cells/well, read-out: hGPR120 β-arrestin B EC50
T1 construct: host or cells: PathHunter CHO-K1 GPR120S β-Arrestin Cell Line
T1 sequence (P32121 whole entry partner, one chain of several): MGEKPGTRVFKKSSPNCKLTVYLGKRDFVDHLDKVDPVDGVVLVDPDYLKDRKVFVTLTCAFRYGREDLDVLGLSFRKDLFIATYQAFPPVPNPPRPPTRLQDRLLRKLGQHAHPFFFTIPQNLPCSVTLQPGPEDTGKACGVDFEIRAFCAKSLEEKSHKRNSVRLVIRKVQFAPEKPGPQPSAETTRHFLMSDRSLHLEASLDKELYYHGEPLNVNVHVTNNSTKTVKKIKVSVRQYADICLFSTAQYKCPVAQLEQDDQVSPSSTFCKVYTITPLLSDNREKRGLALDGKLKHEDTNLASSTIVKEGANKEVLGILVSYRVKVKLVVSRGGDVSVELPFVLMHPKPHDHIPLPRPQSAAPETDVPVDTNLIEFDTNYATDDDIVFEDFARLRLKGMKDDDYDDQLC
Text: The binding of an agonist (medium/long chain fatty acids or small molecule agonists) to the G-protein-coupled receptor GPR120 activates phospholipase C, leading to release of intracellular Ca^+2 through the generation of inositol 1,4,5-trisphosphate (InsP3 or IP3). GPR120 activation can also trigger intracellular signaling via recruitment of Beta-Arrestin. In the present method, agonist-induced activation of the human GPR120 receptor is monitored through the use of PathHunter CHO-K1 GPR120 Beta-Arrestin Cell Line engineered by DiscoveRx, as detailed below. The cell lines are designed to co-express both the ProLink/Enzyme Donor (PK)-tagged GPCR and the Enzyme […] (EA)-tagged Beta-Arrestin fusion proteins. Upon GPR120 receptor stimulation/activation, the EA-tagged Beta-Arrestin portion is translocated to the tagged receptor, where the two enzyme fragments are brought within close proximity. Under these conditions, these fragments can interact and form an active Beta-gal enzyme complex through Enzyme Fragment Complementation (EFC). This active Beta-gal complex can enzymatically hydrolyse the substrate to produce a detectable light signal; therefore, activation as a function of agonist concentration can be expressed as an EC50 value to determine relative compound activities. This in vitro assay therefore serves to assess compound agonist activity of the GPR120. Procedure β-Arrestin A: In Procedure β-arrestin A, the cell used were PathHunter CHO-K1 GPR120 β-Arrestin Cell Line, expressing the long form of human GPR120 (Genbank accession number NM 181745), with 3000 cells per well. Procedure β-Arrestin B: In Procedure 3-arrestin B the cells used were PathHunter CHO-K1 GPR120S β-Arrestin Cell Line, expressing the short form of the GPR120 receptor (Accession #NM_181745), with 5000 cells/well. Assay Procedure:
The selected CHO-K1 GPR120 β-Arrestin cells were cultured in Ham's F12 media supplemented with 10% fetal bovine serum (FBS), 1% Glutamine, lx p/s, 800 μg/mL G418 and 300 μg/mL Hygromycin B (for selection). Cell stocks were maintained and grown in a sub-confluent state using standard cell culture procedures. The day before the experiment, the cells were harvested with non-enzymatic cell dissociation buffer and re-suspended in complete growth media at the desired concentration. A Corning 384-plate was then seeded with the proper number of cells in a volume of 25 μL, per well. The seeded plates were incubated overnight at 37° C.
On the day of the experiment, the Assay Buffer containing (a) HBSS with Ca^++ and Mg^++, (b) 20 mM HEPES, and (c) 0.1% BSA stabilizer (pH 7.4) was prepared. The growth medium was gently removed from the cell plates and 20 μL of Assay Buffer added to each well. The plate was then incubated at 37° C. for 60 min. Test compounds were serially diluted in Assay Buffer to desired concentrations (more particularly to one or more of the following μM concentrations: 25, 12.5, 6.25, 3.125, 1.5625, 0.78125, 0.390625, 0.1953125, 0.09765625, 0.048828125, 0.024414063, 0.012207031). Five μL of compound dilution was then added to each well and the plate incubated at 37° C. for 90 min. The detection reagents were prepared according to the manufacture's instruction. Twelve μL of the detection reagents were added to each well and the plate incubated at room temperature for 60 min.
The plates were read on an EnVision instrument, using Protocol name: Luminescence, Plate type: 384 Costar, Measurement height: 3 mm, Measurement time: 1 s, Aperture: 384 Plate aperture. The % activity relative to the positive control was calculated using the following equation:
The % Activity values were plotted versus the concentration of test compound and fitted to a sigmoidal dose-response curve with a Hill slope=1 (fixed value) using nonlinear regression with GraphPad Prism 5.0 to calculate the EC50 values. […]

Human GPR120 short form = target: T2, Human GPR120 short form (Homo sapiens, UniProt Q5NUL3); test: Human GPR120 calcium flux assay (FLIPR), Procedure Calcium A; conditions: HEK-293 cells expressing human GPR120 short form, 2500 cells/well; read-out: GPR120 Ca2+ Assay A EC50
T2 construct: expressed in transfected cells
T2 sequence (Q5NUL3 1-361): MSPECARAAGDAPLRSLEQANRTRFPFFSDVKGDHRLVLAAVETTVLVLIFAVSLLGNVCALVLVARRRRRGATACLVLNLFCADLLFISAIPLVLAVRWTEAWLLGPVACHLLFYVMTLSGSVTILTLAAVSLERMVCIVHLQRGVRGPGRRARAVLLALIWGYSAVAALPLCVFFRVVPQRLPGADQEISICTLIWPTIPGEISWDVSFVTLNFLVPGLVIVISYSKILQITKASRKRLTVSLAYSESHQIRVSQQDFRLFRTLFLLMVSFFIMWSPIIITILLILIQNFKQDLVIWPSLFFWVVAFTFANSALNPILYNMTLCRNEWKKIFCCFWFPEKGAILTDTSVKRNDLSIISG
How it was run: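 HEK293 cells stably expressing the short isoform (NM_001195755.1), 2500/well, starved 1 h, then loaded with Fluo-4 NW plus probenecid (30 min 37 °C, 15 min RT). Compound solutions 0.012–100 μM, 0.2% DMSO final; FLIPR read 300 s after addition. EC50 from Fmax−Fmin fitted to variable-slope sigmoid (Hill <2).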

[2] = target: T3, long form of human GPR120 (Homo sapiens, UniProt Q5NUL3); test: Human GPR120 DiscoveRx PathHunter Beta-Arrestin assay, Procedure β-arrestin A; conditions: PathHunter CHO-K1 GPR120 β-Arrestin cell line, 3000 cells per well, read-out: hGPR120 β-arrestin A EC50
T3 construct: host or cells: PathHunter CHO-K1 GPR120 β-Arrestin Cell Line
T3 sequence (Q5NUL3 1-377 isoform Q5NUL3-1): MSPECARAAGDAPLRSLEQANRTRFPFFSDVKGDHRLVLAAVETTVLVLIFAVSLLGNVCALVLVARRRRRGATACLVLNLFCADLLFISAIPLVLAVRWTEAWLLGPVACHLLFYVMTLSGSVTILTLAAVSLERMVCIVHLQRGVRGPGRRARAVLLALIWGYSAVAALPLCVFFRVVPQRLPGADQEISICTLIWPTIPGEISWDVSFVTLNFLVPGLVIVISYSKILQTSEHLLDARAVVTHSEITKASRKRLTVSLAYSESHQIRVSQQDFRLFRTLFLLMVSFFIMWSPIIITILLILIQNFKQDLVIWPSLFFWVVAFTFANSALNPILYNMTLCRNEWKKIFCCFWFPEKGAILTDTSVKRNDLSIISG
T3 sequence (P32121 whole entry partner): as the sequence (P32121 whole entry partner, one chain of several) above
How it was run: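 PathHunter CHO-K1 β-arrestin cells expressed long-form GPR120 (Procedure A, 3000 cells/well) or short-form GPR120 (Procedure B, 5000 cells/well). Compounds were serially diluted from 25 µM and incubated 90 min at 37 °C in HBSS/20 mM HEPES/0.1% BSA, pH 7.4. Luminescence was read after 60 min detection at RT; EC50 comes from % activity versus positive control, Hill slope fixed at 1.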

| EC50 [1] [µM] | EC50 (Human GPR120 short form) [µM] | EC50 [2] [µM] | Molecule |
| --- | --- | --- | --- |
| 1.48 | 0.478 |  | Cc1ccccc1-c1snc(C(F)(F)F)c1COc1ccc(CCC(=O)O)c(C(F)(F)F)c1 [Cpd 203, 3-(4-[[5-(2-methylphenyl)-3-(trifluoromethyl)-1,2-thiazol-4-yl]methoxy]-2-(trifluoromethyl)phenyl) propanoic acid] |
| 0.741 | 0.53 |  | O=C(O)C1CC1c1ccc(OCc2c(-c3ccc(Cl)cc3)nsc2C(F)(F)F)cc1 (centres unmarked) [Cpd 205, 2-(4-((3-(4-chlorophenyl)-5-(trifluoromethyl)isothiazol-4-yl)methoxy)phenyl)cyclopropanecarboxylic acid] |
| 0.224 | 0.392 |  | COc1cc(F)c(-c2nsc(C(F)(F)F)c2COc2c(F)cc(CCC(=O)O)cc2F)c(F)c1 [Cpd 197, 3-(4-[[3-(2,6-difluoro-4-methoxyphenyl)-5-(trifluoromethyl)-1,2-thiazol-4-yl]methoxy]-3,5-difluorophenyl)propanoic acid] |
| 1.81 | 0.936 |  | COc1cc(F)c(-c2nsc(C(F)(F)F)c2COc2ccc(CCC(=O)O)c(C)c2C)c(F)c1 [Cpd 229, 3-(4-[[3-(2,6-difluoro-4-methoxyphenyl)-5-(trifluoromethyl)-1,2-thiazol-4-yl]methoxy]-2,3-dimethylphenyl)propanoic acid] |
| 1.05 | 0.58 |  | Cc1cc(CCC(=O)O)c(C(F)(F)F)cc1OCc1c(Cl)nsc1-c1ccccc1C [Cpd 210, 3-(4-((3-chloro-5-(o-tolyl)isothiazol-4-yl)methoxy)-5-methyl-2-(trifluoromethyl)phenyl)propanoic acid] |
| 0.154 | 0.067 |  | CC(Cc1cc(F)c(OCc2c(-c3ccc(Cl)c(F)c3)nsc2C(F)(F)F)c(F)c1)C(=O)O (centres unmarked) [Cpd 90, 3-(4-((3-(4-chloro-3-fluorophenyl)-5-(trifluoromethyl)isothiazol-4-yl)methoxy)-3,5-difluorophenyl)-2-methylpropanoic acid] |
| 0.132 | 0.16 |  | O=C(O)CCc1cc(F)c(OCc2c(-c3ccccc3)nsc2C(F)(F)F)c(F)c1 [Cpd 145, 3-(3,5-difluoro-4-((3-phenyl-5-(trifluoromethyl)isothiazol-4-yl)methoxy)phenyl)propanoic acid] |
| 0.096 |  |  | COc1ccc(-c2nsc(C(F)(F)F)c2COc2c(F)cc(CCC(=O)O)cc2F)cc1F [Cpd 237, 3-(3,5-difluoro-4-[[3-(3-fluoro-4-methoxyphenyl)-5-(trifluoromethyl)-1,2-thiazol-4-yl]methoxy]phenyl)propanoic acid] |
| 0.116 |  |  | O=C(O)CCc1cc(F)c(OCc2c(-c3ccc(F)c(F)c3)nsc2C(F)(F)F)c(F)c1 [Cpd 129, 3-(4-((3-(3,4-difluorophenyl)-5-(trifluoromethyl)isothiazol-4-yl)methoxy)-3,5-difluorophenyl)propanoic acid] |
|  | 0.059 | 0.261 | CCc1ccc(-c2ccsc2COc2ccc(CCCO)c(F)c2F)cc1 [Cpd 4, 3-(4-[[3-(4-ethylphenyl)thiophen-2-yl]methoxy]-2,3-difluorophenyl)propan-1-ol] |
|  | 0.551 | 0.54 | Cc1cc(OCc2c(-c3ncc(Cl)cc3F)nsc2C(F)(F)F)c(F)cc1CCC(=O)O [Cpd 206, 3-(4-((3-(5-chloro-3-fluoropyridin-2-yl)-5-(trifluoromethyl)isothiazol-4-yl)methoxy)-5-fluoro-2-methylphenyl)propanoic acid] |
|  | 0.099 | 0.071 | Cc1c(CCC(=O)O)cc(F)c(OCc2c(-c3ccc(Cl)cc3)nsc2C(F)(F)F)c1F [Cpd 113, 3-(4-((3-(4-chlorophenyl)-5-(trifluoromethyl)isothiazol-4-yl)methoxy)-3,5-difluoro-2-methylphenyl)propanoic acid] |
|  | 0.046 | 0.503 | O=C(O)CCc1cc(F)c(OCc2c(C3=CCCC3)csc2C(F)(F)F)c(F)c1 [Cpd 31, 3-(4-((4-(cyclopent-1-en-1-yl)-2-(trifluoromethyl)thiophen-3-yl)methoxy)-3,5-difluorophenyl)propanoic acid] |
|  | 0.237 | 0.108 | OCCCc1cc(F)c(OCc2c(-c3ccc(Cl)cc3)csc2C(F)(F)F)c(F)c1F [Cpd 56, 3-(4-((4-(4-chlorophenyl)-2-(trifluoromethyl)thiophen-3-yl)methoxy)-2,3,5-trifluorophenyl)propan-1-ol] |
|  | 0.314 | 0.379 | Cc1c(CCC(=O)O)ccc(OCc2c(-c3ccc(C4CC4)cc3)nsc2C(F)(F)F)c1C [Cpd 190, 3-(4-((3-(4-cyclopropylphenyl)-5-(trifluoromethyl)isothiazol-4-yl)methoxy)-2,3-dimethylphenyl)propanoic acid] |
|  | 0.134 | 0.058 | CCc1ccc(-c2nsc(C(F)(F)F)c2COc2c(F)cc(CCCO)cc2F)cc1 [Cpd 135, 3-(4-((3-(4-ethylphenyl)-5-(trifluoromethyl)isothiazol-4-yl)methoxy)-3,5-difluorophenyl)propan-1-61] |
|  | 0.165 | 0.125 | OCCCc1cc(F)c(OCc2c(-c3ccc(Cl)cc3)csc2C(F)(F)F)c(F)c1 [Cpd 46, 3-(4-[[4-(4-chlorophenyl)-2-(trifluoromethyl)thiophen-3-yl]methoxy]-3,5-difluorophenyl)propan-1-ol] |
|  | 0.073 | 0.287 | O=C(O)CCc1cc(F)c(OCc2c(-c3c(F)cc(Cl)cc3F)nsc2C(F)(F)F)c(F)c1 [Cpd 96, 3-(4-((3-(4-chloro-2,6-difluorophenyl)-5-(trifluoromethyl)isothiazol-4-yl)methoxy)-3,5-difluorophenyl)propanoic acid] |
|  | 0.168 | 0.236 | CCc1ccc(-c2sccc2COc2ccc(CCC(=O)O)c(F)c2F)cc1 [Cpd 48, 3-(4-((2-(4-ethylphenyl)thiophen-3-yl)methoxy)-2,3-difluorophenyl)propanoic acid] |

| Molecule | EC50 [1] [µM] | EC50 (Human GPR120 short form) [µM] | EC50 [2] [µM] |
| --- | --- | --- | --- |
| 3-(4-[[2-(4-chlorophenyl)-5-methyl-4-(trifluoromethyl)thiophen-3-yl]methoxy]-3,5-difluorophenyl)propanoic acid [Cpd 40] |  | 0.129 | 0.65 |
